According to US20060128792A1, “Deguelin as a chemopreventive agent for lung cancer” (priority 2002, published 2006):
Where “and” joins values, the source holds several entries; their conditions need not be identical. Equal values may be shown once.

Tests used:
[1] = test system: bFGF-induced angiogenesis; assay: Matrigel plug assay, bFGF-induced angiogenesis; assay type: in vivo, nude mice; details: 5 nmole deguelin plus bFGF, seven days
Procedure: Inhibition of angiogenesis by deguelin was also evaluated using the Matrigel™ plug assay, an established in vivo angiogenesis model, using nude mice. Matrigel alone was used as a negative control, 100 ng/ml bFGF and 72 units/ml heparin in a vehicle of 0.1% BSA/PBS (bFGF) for a positive control, 5 nmole deguelin alone, and 5 nmole deguelin plus bFGF were included. Seven days after injection, mice were sacrificed. […] 1, 1 and 10 μM concentrations of deguelin in these cells. All of these findings indicated the anti-angiogenic activity of deguelin.

H596 = assay: MTT assay, growth inhibition by deguelin or deguelin derivatives; assay type: cell-based; details: H596, 3 days
Sk-mes = assay: as above; assay type: cell-based; details: 3 days
Chago = assay: as above; assay type: cell-based; details: 3 days
H1299 xenografts = assay: NSCLC xenograft tumor growth; assay type: in vivo, athymic nude mice; details: 4 mg/kg or 8 mg/kg, 5 consecutive days; measured for 15 days; vs control
Procedure: The antitumor effect of deguelin was tested using an iii vivo model. H1299 cells were injected into the dorsal flank of athymic nude mice. Once tumor volume reached 40-80 mm^3, treatment for 5 consecutive days with 4 or 8 mg/kg deguelin began. Tumors were measured every other day for 15 days. […] The results are expressed as the mean (±SD) tumor volume (calculated from at least 5 mice) relative to the initial volume.

H441 = assay: MTT assay, growth inhibition by deguelin or deguelin derivatives; assay type: cell-based; details: 3 days
[2] = test system: breast, prostate, head & neck and ovarian cancer cells; assay: MTT assay, growth inhibition in other cancer cells; assay type: cell-based; details: 10^−9 M to 10^−6 M, 3 or 5 days; more effective at 10^−7 M to 10^−6 M
Procedure: It was next determined whether deguelin can inhibit cell growth in cancer cells other than lung cancer cells. Cancer cells, such as breast, prostate, head & neck and ovarian cells were treated with 10^−6 M, 10^−7 M, 10^−8 M, or 10^−9 M deguelin for 3 or 5 days, and cell growth inhibition analyzed by MTT assay.

[3] = test system: pAkt (Ser473) and pGSK-3β (Ser9) in 1799 cells; assay: Western blot of pAkt (Ser473) and pGSK-3β (Ser9); assay type: cell-based
Procedure: Immunoblotting. Whole cell lysates were prepared in lysis buffer (50 mM N-[2-[…]]-piperazine-N′-[2-ethanesulfonic acid] [HEPES; pH 7.5], 150 mM NaCl, 1.5 mM MgCl2, ImM EDTA, 0.2 mM EGTA, 1% NP40, 10% glycerol, 1 mM dithiothreitol (DTT), 1 mM phenylmethylsulfonyl fluoride, 20 mM sodium fluoride, 5 mM sodium orthovanadate, 10 μg/ml aprotinin, 10 μg/ml leupeptin, 2 μg/ml pepstatin, and 1 mM benzamidine) as described previously (Lee et al., 2002). Equivalent protein concentrations were resolved in sodium dodecyl sulfate-polyacrylamide gels and transferred to a nitrocellulose membrane. After the blocking of transblotted membrane in Tris-buffered saline (TBS) containing 0.05% Tween 20 (TBST) and 5% low fat milk, themembrane was incubated with primary antibody at the appropriate dilution in TBS-5% low-fat milk at 4° C. for 16 h and washed with TBST. The immunoblots were visualized using the ECL kit (Amersham, Inc., Arlington Heights, III) according to the manufacturer's directions. Rabbit polyclonal antibodies against human pAkt (Ser473), Akt, and pGSK-3β (Ser9), and mouse monoclonal antibody against human anti-pMAPK (Thr202/Tyr204) were purchased from Cell Signalinng Technology (Beverly, Mass.). […]

[4] = test system: caspase-3, PARP, Bax, Bcl-2, Bcl-xL in 1799 cells; assay: Western blot of caspase-3, PARP and Bcl family proteins; assay type: cell-based
Procedure: Immunoblotting. Whole cell lysates were prepared in lysis buffer (50 mM N-[2-hydroxymethyl]-piperazine-N′-[2-ethanesulfonic acid] [HEPES; pH 7.5], 150 mM NaCl, 1.5 mM MgCl2, ImM EDTA, 0.2 mM EGTA, 1% NP40, 10% glycerol, 1 mM dithiothreitol (DTT), 1 mM phenylmethylsulfonyl fluoride, 20 mM sodium fluoride, 5 mM sodium orthovanadate, 10 μg/ml aprotinin, 10 μg/ml leupeptin, 2 μg/ml pepstatin, and 1 mM benzamidine) as described previously (Lee et al., 2002). Equivalent protein concentrations were resolved in sodium dodecyl sulfate-polyacrylamide gels and transferred to a nitrocellulose membrane. After the blocking of transblotted membrane in Tris-buffered saline (TBS) containing 0.05% Tween 20 (TBST) and 5% low fat milk, themembrane was incubated with primary antibody at the appropriate dilution in TBS-5% low-fat milk at 4° C. for 16 h and washed with TBST. The immunoblots were visualized using the ECL kit (Amersham, Inc., Arlington Heights, III) according to the manufacturer's directions. Rabbit polyclonal antibodies against human pAkt (Ser473), Akt, and pGSK-3β (Ser9), and mouse monoclonal antibody against human anti-pMAPK (Thr202/Tyr204) were purchased from Cell Signalinng Technology (Beverly, Mass.). Rabbit polyclonal anti-glycogen synthase (GSK)-3 α/β (BD Transduction Laboratories, Lexington, Ky.), rabbit polyclonal anti-Bax and anti-caspase-3 antibodies (Pharmingen, San Diego, Calif.), rabbit polyclonal anti-Bcl2 and rabbit polyclonal anti-poly (ADP-ribose) polymerase O?ARP) antibody (VIC 5) (Roche Molecular Biochemicals, Indianapolis, Ind.), goat antibodies against Erk-1, Erk-2, and β-Actin (Santa Cruz Biotechnology, Inc., Santa Cruz, Calif.) were used for western blot analysis.

SMILES: COc1cc2c(cc1OC)[C@@H]1C(=O)c3ccc4c(c3O[C@@H]1CO2)C=CC(C)(C)O4 [Deguelin]
- bFGF-induced angiogenesis in Matrigel plugs [1]: markedly inhibit
- Avg. % con (H596; deguelin 10^−6M): 0.62 % con
- MTT value, mean of replicates (unheaded line) (H596; deguelin 10^−6M): 0.290
- MTT value, replicate (unheaded line) (H596; deguelin 10^−6M): 0.29 and 0.298 and 0.281
- Avg. % con (H596; deguelin 10^−8M): 0.67 % con
- MTT value, mean of replicates (unheaded line) (H596; deguelin 10^−8M): 0.314
- MTT value, replicate (unheaded line) (H596; deguelin 10^−8M): 0.324 and 0.311 and 0.307
- Avg. % con (H596; deguelin 10^−10M): 0.67 % con
- MTT value, mean of replicates (unheaded line) (H596; deguelin 10^−10M): 0.313
- MTT value, replicate (unheaded line) (H596; deguelin 10^−10M): 0.314 and 0.338 and 0.287
- Avg. % con (H596; deguelin 10^−12M): 0.76 % con
- MTT value, mean of replicates (unheaded line) (H596; deguelin 10^−12M): 0.358
- MTT value, replicate (unheaded line) (H596; deguelin 10^−12M): 0.386 and 0.372 and 0.317
- Avg. % con (Sk-mes; deguelin 10^−6M): 0.45 % con
- MTT value, mean of replicates (unheaded line) (Sk-mes; deguelin 10^−6M): 0.121
- MTT value, replicate (unheaded line) (Sk-mes; deguelin 10^−6M): 0.107 and 0.135 and 0.122
- Avg. % con (Sk-mes; deguelin 10^−8M): 0.79 % con
- MTT value, mean of replicates (unheaded line) (Sk-mes; deguelin 10^−8M): 0.211
- MTT value, replicate (unheaded line) (Sk-mes; deguelin 10^−8M): 0.207 and 0.209 and 0.216
- Avg. % con (Sk-mes; deguelin 10^−10M): 0.92 % con
- MTT value, mean of replicates (unheaded line) (Sk-mes; deguelin 10^−10M): 0.247
- MTT value, replicate (unheaded line) (Sk-mes; deguelin 10^−10M): 0.243 and 0.223 and 0.274
- Avg. % con (Sk-mes; deguelin 10^−12M): 0.96 % con
- MTT value, mean of replicates (unheaded line) (Sk-mes; deguelin 10^−12M): 0.258
- MTT value, replicate (unheaded line) (Sk-mes; deguelin 10^−12M): 0.253 and 0.258 and 0.264
- Avg. % con (Chago; deguelin 10^−6M): 0.56 % con
- MTT value, mean of replicates (unheaded line) (Chago; deguelin 10^−6M): 0.086
- MTT value, replicate (unheaded line) (Chago; deguelin 10^−6M): 0.094 and 0.086 and 0.078
- Avg. % con (Chago; deguelin 10^−8M): 0.65 % con
- MTT value, mean of replicates (unheaded line) (Chago; deguelin 10^−8M): 0.1
- MTT value, replicate (unheaded line) (Chago; deguelin 10^−8M): 0.101 and 0.093 and 0.106
- Avg. % con (Chago; deguelin 10^−10M): 1.24 % con
- MTT value, mean of replicates (unheaded line) (Chago; deguelin 10^−10M): 0.191
- MTT value, replicate (unheaded line) (Chago; deguelin 10^−10M): 0.192 and 0.184 and 0.197
- Avg. % con (Chago; deguelin 10^−12M): 1.18 % con
- MTT value, mean of replicates (unheaded line) (Chago; deguelin 10^−12M): 0.182
- MTT value, replicate (unheaded line) (Chago; deguelin 10^−12M): 0.175 and 0.179 and 0.192
- growth of NSCLC xenografts (tumor volume relative to initial volume) (H1299 xenografts): inhibited
- Avg. % con (H441; deguelin 10^−6M): 0.82 % con
- MTT value, mean of replicates (unheaded line) (H441; deguelin 10^−6M): 0.181
- MTT value, replicate (unheaded line) (H441; deguelin 10^−6M): 0.18 (2×) and 0.183
- Avg. % con (H441; deguelin 10^−8M): 0.94 % con
- MTT value, mean of replicates (unheaded line) (H441; deguelin 10^−8M): 0.207
- MTT value, replicate (unheaded line) (H441; deguelin 10^−8M): 0.209 and 0.203 and 0.21
- Avg. % con (H441; deguelin 10^−10M): 1.01 % con
- MTT value, mean of replicates (unheaded line) (H441; deguelin 10^−10M): 0.223
- MTT value, replicate (unheaded line) (H441; deguelin 10^−10M): 0.21 and 0.231 and 0.229
- Avg. % con (H441; deguelin 10^−12M): 1.12 % con
- MTT value, mean of replicates (unheaded line) (H441; deguelin 10^−12M): 0.247
- MTT value, replicate (unheaded line) (H441; deguelin 10^−12M): 0.234 and 0.259 and 0.249
- cell proliferation in breast, prostate, head & neck and ovarian cancer cells [2]: inhibit cell proliferation in these cells in a dose dependent manner
- pAkt level, time course ([3]; 10^−7 M deguelin): reduced after 7 h of treatment and was virtually undetectable after 14 h
- levels of pAkt (Ser473) and pGSK-3β (Ser9) ([3]; time-dependent, Akt, GSK-3α/β and β-Actin not affected): decreased
- Bcl-2 expression [4]: mild decrease
- Bcl-xL level [4]: not affected
- level of Bax [4]: dose-dependent increase
- 32-kDa caspase-3 proenzyme (with increase of 89-kDa PARP fragment) ([4]; more than 10^−8 M deguelin, 3 days): significant decrease
